Data as given in patent US20230257366A1, “SULFUR-CONTAINING ISOINDOLINE DERIVATIVE, AND PREPARATION METHOD THEREFOR AND MEDICAL USE THEREOF” (JIANGSU HENGRUI PHARMACEUTICALS CO., LTD., priority 2020, published 2023).

Columns and labels:
[1] = Pharmacokinetic evaluation in mice after intragastric administration (LC/MS/MS); type: in vivo; settings: female, mouse, plasma, po, mice, intragastric, 2 mg/kg
Protocol: The drug concentration in the plasma of the test animals (mice) at different time points after intragastric administration of the compound of Example 6 and the control example CC-92480 was determined by an LC/MS/MS method. The pharmacokinetic behavior of the compound of the present disclosure in mice was studied and its pharmacokinetic profile was evaluated.
Compound of Example 6 and control example CC-92480.
Eighteen mice, female, purchased from Beijing Vital River Laboratory Animal Technology Co., Ltd., with animal production license number of SCXK (Shanghai) 2017-0005.
A certain amount of compound of Example 6 was weighed, dissolved by adding 5% by volume of DMSO and 5% Tween 80 (Shanghai Titan Scientific Co., Ltd.), and then prepared into a 0.1 mg/mL clear solution by adding 90% normal saline.
A certain amount of the control example CC-92480 was weighed, dissolved by adding 5% by volume of DMSO and 5% Tween 80 (Shanghai Titan Scientific Co., Ltd.), and then prepared into a 0.1 mg/mL clear solution by adding 90% normal saline.
Nine mice were intragastrically administered with the compound of Example 6 at a dose of 2 mg/kg and at a volume of 0.2 mL/10 g.
Nine mice were intragastrically administered with the control example CC-92480 at a dose of 2 mg/kg and at a volume of 0.2 mL/10 g.
Mice were intragastrically administered with the compound of Example 6 and the control example CC-92480, and 0.2 mL of blood was collected before the administration and 0.25 h, 0.5 h, 1.0 h, 2.0 h, 4.0 h, 6.0 h, 8.0 h, 11.0 h and 24.0 h after the administration (3 animals at each time point), placed in EDTA-K2 anticoagulation tubes, and centrifuged at 10,000 rpm for 1 min(4° C.). Plasma was separated within 1 h, and stored at −20° C. for testing. The process from blood collection to centrifugation was performed under an ice bath.
The content of the test compounds at different concentrations in mouse plasma after the administration was determined: 25 μL of mouse plasma at each time point after the administration was mixed with 50 μL (100 ng/mL) of internal standard solution camptothecin (National Institutes for Drug Control) and 175 μL of acetonitrile. The mixture was vortexed for 5 min and centrifuged for 10 min (3700 rpm/min), and 1 μL of the supernatant of the plasma sample was taken for LC/MS/MS assay (API4000 triple quadrupole tandem mass spectrometer, Applied Biosystems, USA; Shimadzu, LC-30AD ultra high performance liquid chromatography system, Shimadzu, Japan).

[2] = Effect on body weight of tumor-bearing CB-17 SCID mice; type: in vivo; settings: 1 mg/kg qd, 11 days
Protocol: NCI-H929 cells in a logarithmic growth phase were inoculated subcutaneously into the right flank of 30 female CB-17 SCID mice at 5×10^6 cells/mouse/100 μL (containing 50 μL of Matrigel). After 10 days, when the tumor volume of the tumor-bearing mice reached about 200 mm^3, the mice were randomly divided into 3 groups according to the tumor volume and body weight: vehicle control group, CC-92480-1 mpk, compound of Example 6-1 mpk, with 7 mice in each group. The day of grouping was set as Day 0 (D0), and intragastric administration was performed once a day for 11 days (Table 2). For the tumor-bearing mice, the tumor volume was measured with a vernier caliper and the body weight was measured with a balance twice a week, and the data were recorded.
The effect of the compound of Example 6 and the control example CC-92480 on the body weight of CB-17 SCID mice is shown in FIG. 2.

NCI-H929 cells = experiment: NCI-H929 proliferation experiment (CellTiter-Glo, 5 days); type: cell-based; settings: Homo sapiens, 120 h, 5 days incubation, read-out: IC50 values for the inhibition of proliferation of NCI-H929 cells
Protocol: The following method was used to determine the inhibitory activity of the compounds of the present disclosure on the proliferation of NCI-H929 cells. The experimental method was briefly described as follows.
NCI-H929 cells (ATCC, CRL-9068) were cultured in a complete medium (RPMI 1640 medium (Hyclone, SH30809.01) containing 10% fetal bovine serum (Corning, 35-076-CV) and 0.05 mM 2-mercaptoethanol (Sigma, M3148)). On the first day of the experiment, NCI-H929 cells were seeded in a 96-well plate at a density of 6000 cells/well with a complete medium to form 100 μL of cell suspension per well, and 10 μL of test compound prepared in a complete medium and diluted in a gradient was added to each well. The compound was firstly dissolved in DMSO, with an initial concentration of 10 mM, and then subjected to serial dilution at a 5-fold concentration gradient for a total of 9 concentration points, with a blank control of 100% DMSO. Another 5 μL of the compound dissolved in DMSO was added to 95 μL of complete medium, i.e., the compound was diluted 20-fold with the complete medium. Finally the compound diluted in the complete medium at 10 μL/well was added to the cell suspension, wherein the final concentrations of the compound were 9 concentration points obtained by 5-fold gradient dilution starting from 50 μM. A blank control containing 0.5% DMSO was set. The plate was incubated in a cell incubator at 37° C. with 5% CO2 for 5 days. On the sixth day, the 96-well cell culture plate was taken out, added with a CellTiter-Glo® luminescent cell activity detect reagent (Promega, G7573) at 50 μL/well, left to stand at room temperature for 10 min, and read for the luminescence signal values using a multi-mode microplate reader (PerkinElmer, EnVision 2015). IC50 values for the inhibitory activity of the compounds were calculated using Graphpad Prism software, with the results shown in Table 1.

N#Cc1ccc(N2CCC(Sc3ccc(COc4cccc5c4CN([C@H]4CCC(=O)NC4=O)C5=O)cn3)CC2)c(F)c1 [Compound 6, (S)-4-(4-((5-(((2-(2,6-dioxopiperidin-3-yl)-1-oxoisoindolin-4-yl)oxy)methyl)pyridin-2-yl)thio)piperidin-1-yl)-3-fluorobenzonitrile]
Vd/F ([1]; read-out: Apparent volume of distribution Vz/F): 1.79 L/kg | AUC ([1]; read-out: Area under curve AUC): 4690 ng·h/mL | CL/F ([1]; read-out: Clearance CL/F): 7.1 mL/min/kg | half-life ([1]; read-out: Half-life T½ (converted)): 2.9 h | Cmax ([1]; read-out: Plasma concentration Cmax): 799 ng/mL | MRT ([1]; read-out: Residence time MRT): 4.6 h | influence on the body weight of mice [2]: no influence on the body weight of mice | IC50 (NCI-H929 cells): 20 pM
